Where two headings read alike, the source gives them in different places.
Key:
[1] = system: E. coli mL308 225; assay: In Vitro Anti-Bacterial Activity Assay (MIC), gram negative; assay type: cell-based; conditions: for MIC: Escherichia coli, ML308225, 18 h
[2] = system: S. aureus RN450; assay: In Vitro Anti-Bacterial Activity Assay (MIC), gram positive; assay type: cell-based; conditions: for MIC: Staphylococcus aureus, RN450, 18 h
[3] = MIC class, Table 3, read-out: Antibiotic Activity Gram −
[4] = MIC class, Table 3, read-out: Antibiotic Activity Gram +
[5] = gram negative bacteria, read-out: Antibiotic Activity Gram − (MIC)
[6] = gram positive bacteria, read-out: Antibiotic Activity Gram + (MIC)
[7] = MIC class, Table 3 (Continued), read-out: Gram− activity
[8] = MIC class, Table 3 (Continued), read-out: Gram+ activity

SMILES: CO/N=C(/C)c1cc(C(C)(C)C)c(O)c2c1C[C@H]1C[C@H]3[C@H](N(C)C)C(O)=C(C(N)=O)C(=O)[C@@]3(O)C(O)=C1C2=O [IC]
- MIC [1, 3]: > 4 µg/mL
- MIC [2, 4]: < 4 µg/mL

SMILES: CN(C)c1cc(NCc2ccc(O)c(O)c2)c(O)c2c1C[C@H]1C[C@H]3[C@H](N(C)C)C(O)=C(C(N)=O)C(=O)[C@@]3(O)C(O)=C1C2=O
- MIC [1, 5]: > 4 µg/mL
- MIC [2, 6]: < 4 µg/mL

SMILES: CC(C)CNCc1cc(N(C)C)c2c(c1O)C(=O)C1=C(O)[C@]3(O)C(=O)C(C(N)=O)=C(O)[C@@H](N(C)C)[C@@H]3C[C@@H]1C2 [drawing 3497]
- Antibiotic Activity Gram − (MIC) ([1]; gram negative bacteria): * (compounds with an MIC of greater than 4 μg/ml are indicated with *)
- Antibiotic Activity Gram + (MIC) ([2]; gram positive bacteria): ** (compounds with MIC less than or equal to 4 μg/ml are indicated with **)

SMILES: CN(C)[C@@H]1C(O)=C(C(N)=O)C(=O)[C@@]2(O)C(O)=C3C(=O)c4c(ccc(NC5CC(C)(C)NC(C)(C)C5)c4O)C[C@H]3C[C@@H]12 [LF]
- MIC [1, 3]: > 4 µg/mL
- MIC [2, 4]: < 4 µg/mL

SMILES: CN(C)c1cc(NCc2ccc(OC(F)(F)F)cc2)c(O)c2c1C[C@H]1C[C@H]3[C@H](N(C)C)C(O)=C(C(N)=O)C(=O)[C@@]3(O)C(O)=C1C2=O
- MIC [1, 5]: > 4 µg/mL
- MIC [2, 6]: < 4 µg/mL

SMILES: COC(=O)c1ccc2c(c1O)C(=O)C1=C(O)[C@]3(O)C(=O)C(C(N)=O)=C(O)[C@@H](N(C)C)[C@@H]3[C@@H](O)[C@@H]1[C@H]2C
- MIC [1, 5]: > 4 µg/mL
- MIC [2, 6]: > 4 µg/mL

SMILES: CN(C)c1cc(NCC2CCCCC2)c(O)c2c1C[C@H]1C[C@H]3[C@H](N(C)C)C(O)=C(C(N)=O)C(=O)[C@@]3(O)C(O)=C1C2=O
- MIC [1, 5]: > 4 µg/mL
- MIC [2, 6]: > 4 µg/mL

SMILES: C[C@H]1c2ccc(N3CCCCC3)c(O)c2C(=O)C2=C(O)[C@]3(O)C(=O)C(C(N)=O)=C(O)[C@@H](N(C)C)[C@@H]3[C@@H](O)[C@@H]21 [JV]
- MIC [1, 3]: > 4 µg/mL
- MIC [2, 4]: < 4 µg/mL

SMILES: COC(=O)c1ccc(O)c2c1C[C@H]1C[C@H]3[C@H](N(C)C)C(O)=C(C(N)=O)C(=O)[C@@]3(O)C(O)=C1C2=O
- MIC [1, 5]: < 4 µg/mL
- MIC [2, 6]: < 4 µg/mL

SMILES: CN(C)[C@@H]1C(O)=C(C(N)=O)C(=O)[C@@]2(O)C(O)=C3C(=O)c4c(O)ccc(-c5ccc(CNCCc6ccc(Cl)cc6)cc5)c4C[C@H]3C[C@@H]12
- MIC [1, 5]: < 4 µg/mL
- MIC [2, 6]: < 4 µg/mL

SMILES: CC(C)CNCc1cc(N(C)C)c2c(c1O)C(=O)C1=C(O)[C@]3(O)C(=O)C(C(N)=O)=C(O)[C@@H](N(C)C)[C@@H]3C[C@@H]1C2 [drawing 3371]
- Antibiotic Activity Gram − (MIC) ([1]; gram negative bacteria): ** (compounds with MIC less than or equal to 4 μg/ml are indicated with **)
- Antibiotic Activity Gram + (MIC) ([2]; gram positive bacteria): ** (compounds with MIC less than or equal to 4 μg/ml are indicated with **)

SMILES: CN(C)c1cc(NC(=N)NCc2ccccc2)c(O)c2c1C[C@H]1C[C@H]3C(N(C)C)C(O)=C(C(N)=O)C(=O)[C@@]3(O)C(O)=C1C2=O (stereo partly drawn) [GM]
- MIC [1, 3]: > 4 µg/mL
- MIC [2, 4]: > 4 µg/mL

SMILES: CN(C)[C@@H]1C(O)=C(C(N)=O)C(=O)[C@@]2(O)C(O)=C3C(=O)c4c(O)c(CN)cc(-c5cccc([N+](=O)O)c5)c4C[C@H]3C[C@@H]12 [DE]
- MIC [1, 3]: > 4 µg/mL
- MIC [2, 4]: < 4 µg/mL

SMILES: CCOC(=O)c1csc(NCc2cc(N(C)C)c3c(c2O)C(=O)C2=C(O)[C@]4(O)C(=O)C(C(N)=O)=C(O)C(N(C)C)[C@@H]4C[C@@H]2C3)n1 (stereo partly drawn) [MT]
- MIC [1, 3]: > 4 µg/mL
- MIC [2, 4]: > 4 µg/mL

SMILES: CN(C)c1cc(-c2ccc(Cl)c(Cl)c2)c(O)c2c1C[C@H]1C[C@H]3[C@H](N(C)C)C(O)=C(C(N)=O)C(=O)[C@@]3(O)C(O)=C1C2=O [AI]
- MIC [1, 3]: > 4 µg/mL
- MIC [2, 4]: < 4 µg/mL

SMILES: CCc1cc(CN2CCC(F)(F)CC2)c(O)c2c1C[C@H]1C[C@H]3[C@H](N(C)C)C(O)=C(C(N)=O)C(=O)[C@@]3(O)C(O)=C1C2=O [drawing 3696]
- Antibiotic Activity Gram − (MIC) ([1]; gram negative bacteria): ** (compounds with MIC less than or equal to 4 μg/ml are indicated with **)
- Antibiotic Activity Gram + (MIC) ([2]; gram positive bacteria): ** (compounds with MIC less than or equal to 4 μg/ml are indicated with **)

SMILES: C[C@H]1c2ccc(-c3cccc(CN4CCN(C)CC4)c3)c(O)c2C(=O)C2=C(O)[C@]3(O)C(=O)C(C(N)=O)=C(O)[C@@H](N(C)C)[C@@H]3[C@@H](O)[C@@H]21 [JA]
- MIC [1, 3]: > 4 µg/mL
- MIC [2, 4]: > 4 µg/mL

SMILES: COc1ccc(C(=O)Nc2ccc(-c3ccc(O)c4c3C[C@H]3C[C@H]5C(N(C)C)C(O)=C(C(N)=O)C(=O)[C@@]5(O)C(O)=C3C4=O)cc2)cc1 (stereo partly drawn) [HT]
- MIC [1, 3]: > 4 µg/mL
- MIC [2, 4]: < 4 µg/mL

SMILES: CN(C)[C@@H]1C(O)=C(C(N)=O)C(=O)[C@@]2(O)C(O)=C3C(=O)c4c(O)ccc(NC(=O)c5ccno5)c4C[C@H]3C[C@@H]12 [IM]
- MIC [1, 3]: > 4 µg/mL
- MIC [2, 4]: < 4 µg/mL

SMILES: CN1CCN(c2cc(N(C)C)c3c(c2O)C(=O)C2=C(O)[C@]4(O)C(=O)C(C(N)=O)=C(O)[C@@H](N(C)C)[C@@H]4C[C@@H]2C3)CC1
- MIC [1, 5]: > 4 µg/mL
- MIC [2, 6]: > 4 µg/mL

SMILES: CN(C)Cc1cc(-c2ccc(O)c3c2C[C@H]2C[C@H]4[C@H](N(C)C)C(O)=C(C(N)=O)C(=O)[C@@]4(O)C(O)=C2C3=O)ccc1F [OQ]
- MIC [1, 3]: < 4 µg/mL
- MIC [2, 4]: < 4 µg/mL

SMILES: CN(C)[C@@H]1C(O)=C(C(N)=O)C(=O)[C@@]2(O)C(O)=C3C(=O)c4c(O)ccc(-c5ccc(C(F)(F)F)cc5)c4C[C@H]3C[C@@H]12
- MIC [1, 7]: < 4 µg/mL
- MIC [2, 8]: < 4 µg/mL

SMILES: CN1CCC(Nc2ccc(O)c3c2C[C@H]2C[C@H]4[C@H](N(C)C)C(O)=C(C(N)=O)C(=O)[C@@]4(O)C(O)=C2C3=O)CC1
- MIC [1, 5]: > 4 µg/mL
- MIC [2, 6]: < 4 µg/mL

SMILES: C[C@H]1c2c(CN)ccc(O)c2C(=O)C2=C(O)[C@]3(O)C(=O)C(C(N)=O)=C(O)[C@@H](N(C)C)[C@@H]3[C@@H](O)[C@@H]21
- MIC [1, 5]: > 4 µg/mL
- MIC [2, 6]: > 4 µg/mL

SMILES: CC1CCN(CC(=O)c2ccc(O)c3c2C[C@H]2C[C@H]4[C@H](N(C)C)C(O)=C(C(N)=O)C(=O)[C@@]4(O)C(O)=C2C3=O)CC1
- MIC [1, 5]: > 4 µg/mL
- MIC [2, 6]: < 4 µg/mL

SMILES: CN(C)[C@@H]1C(O)=C(C(N)=O)C(=O)[C@@]2(O)C(O)=C3C(=O)c4c(O)ccc(-c5ccc(C(C)(C)C)cc5)c4C[C@H]3C[C@@H]12 [drawing 3426]
- MIC [1, 5]: < 4 µg/mL
- MIC [2, 6]: < 4 µg/mL

SMILES: CN(C)[C@@H]1C(O)=C(C(N)=O)C(=O)[C@@]2(O)C(O)=C3C(=O)c4c(O)ccc(-c5ccoc5)c4C[C@H]3C[C@@H]12 [drawing 3429]
- MIC [1, 5]: < 4 µg/mL
- MIC [2, 6]: < 4 µg/mL

SMILES: CN(C)[C@@H]1C(O)=C(C(N)=O)C(=O)[C@@]2(O)C(O)=C3C(=O)c4c(O)ccc(C(=O)O)c4C[C@H]3C[C@@H]12
- MIC [1, 5]: > 4 µg/mL
- MIC [2, 6]: > 4 µg/mL

SMILES: CN(C)[C@@H]1C(O)=C(C(N)=O)C(=O)[C@@]2(O)C(O)=C3C(=O)c4c(O)ccc(/C=C/c5ccc(N)cc5)c4C[C@H]3C[C@@H]12 [AY]
- MIC [1, 3]: > 4 µg/mL
- MIC [2, 4]: < 4 µg/mL

SMILES: CN(C)c1cc(CCC(=O)NC(C)(C)C)c(O)c2c1C[C@H]1C[C@H]3[C@H](N(C)C)C(O)=C(C(N)=O)C(=O)[C@@]3(O)C(O)=C1C2=O
- MIC [1, 5]: > 4 µg/mL
- MIC [2, 6]: > 4 µg/mL

SMILES: C[C@H]1c2ccc(CNCC(C)(C)C)c(O)c2C(=O)C2=C(O)[C@]3(O)C(=O)C(C(N)=O)=C(O)[C@@H](N(C)C)[C@@H]3[C@@H](O)[C@@H]21 [JG]
- MIC [1, 3]: < 4 µg/mL
- MIC [2, 4]: < 4 µg/mL

SMILES: CN(C)[C@@H]1C(O)=C(C(N)=O)C(=O)[C@@]2(O)C(O)=C3C(=O)c4c(ccc(NC(=O)Oc5ccc(F)cc5)c4O)C[C@H]3C[C@@H]12
- MIC ([1]; read-out: Gram− activity): > 4 µg/mL
- MIC ([2]; read-out: Gram+ activity): > 4 µg/mL

SMILES: CC(=O)c1ccc(O)c2c1C[C@H]1C[C@H]3[C@H](N(C)C)C(O)=C(C(N)=O)C(=O)[C@@]3(O)C(O)=C1C2=O [BJ]
- MIC [1, 3]: < 4 µg/mL
- MIC [2, 4]: < 4 µg/mL

SMILES: CN(C)c1cc(-c2ccc(C(=O)O)cc2)c(O)c2c1C[C@H]1C[C@H]3[C@H](N(C)C)C(O)=C(C(N)=O)C(=O)[C@@]3(O)C(O)=C1C2=O
- MIC [1, 7]: < 4 µg/mL
- MIC [2, 8]: < 4 µg/mL

SMILES: CC(=O)N(Cc1cc(N(C)C)c2c(c1O)C(=O)C1=C(O)[C@]3(O)C(=O)C(C(N)=O)=C(O)[C@@H](N(C)C)[C@@H]3C[C@@H]1C2)CC(C)(C)C
- MIC [1, 5]: > 4 µg/mL
- MIC [2, 6]: > 4 µg/mL

SMILES: COc1ccc(OC)c(-c2ccc(O)c3c2C[C@H]2C[C@H]4[C@H](N(C)C)C(O)=C(C(N)=O)C(=O)[C@@]4(O)C(O)=C2C3=O)c1
- MIC [1, 7]: < 4 µg/mL
- MIC [2, 8]: < 4 µg/mL

SMILES: Cc1csc(NCc2cc(N(C)C)c3c(c2O)C(=O)C2=C(O)[C@]4(O)C(=O)C(C(N)=O)=C(O)C(N(C)C)[C@@H]4C[C@@H]2C3)n1 (stereo partly drawn) [MS]
- MIC [1, 3]: > 4 µg/mL
- MIC [2, 4]: < 4 µg/mL

SMILES: CC(=O)Cc1cc(N(C)C)c2c(c1O)C(=O)C1=C(O)[C@]3(O)C(=O)C(C(N)=O)=C(O)[C@@H](N(C)C)[C@@H]3C[C@@H]1C2
- MIC [1, 5]: > 4 µg/mL
- MIC [2, 6]: < 4 µg/mL

SMILES: CN(C)[C@@H]1C(O)=C(C(N)=O)C(=O)[C@@]2(O)C(O)=C3C(=O)c4c(O)ccc(-c5ccc(C(C)(C)C)cc5)c4C[C@H]3C[C@@H]12 [drawing 3327]
- Gram− activity ([1]; number printed instead of class symbol, Table 3 (Continued)): 1.5
- MIC [2, 8]: < 4 µg/mL

SMILES: CCC(NCc1cc(N(C)C)c2c(c1O)C(=O)C1=C(O)[C@]3(O)C(=O)C(C(N)=O)=C(O)C(N(C)C)[C@@H]3C[C@@H]1C2)C(F)(F)F (stereo partly drawn) [NT]
- MIC [1, 3]: > 4 µg/mL
- MIC [2, 4]: < 4 µg/mL

SMILES: CC1c2cccc(O)c2C(=O)C2=C(O)[C@]3(O)C(=O)C(C(N)=O)=C(O)[C@@H](N(C)C)[C@@H]3[C@@H](OC(=O)CCC(=O)O)[C@@H]21 (stereo partly drawn)
- MIC [1, 7]: > 4 µg/mL
- MIC [2, 8]: < 4 µg/mL

SMILES: CN(C)[C@@H]1C(O)=C(C(N)=O)C(=O)[C@@]2(O)C(O)=C3C(=O)c4c(O)ccc(CNCc5ccc[nH]5)c4C[C@H]3C[C@@H]12 [KH]
- MIC [1, 3]: < 4 µg/mL
- MIC [2, 4]: < 4 µg/mL

— patent US20150141381A1, “TETRACYCLINE COMPOUNDS HAVING TARGET THERAPEUTIC ACTIVITIES” (Paratek Pharmaceuticals, Inc., priority 2001, published 2015)
